Patent publication US20230234948A1, “CYCLOPROPYL DIHYDROQUINOLINE SULFONAMIDE COMPOUNDS” (AMGEN INC., priority 2020, published 2023)

Columns and labels:
[1] = test system: CYP3A4; test: Human CYP 3A4 induction assay (mRNA, cryopreserved human hepatocytes); type: in vitro ADME; conditions: 10 uM test compound, 72 hours, percent of control (rifampin positive control)
Description: Human CYP 3A4 Induction Assay
Cryopreserved human hepatocytes were seeded in 96-well collagen coated plates at 70,000 cells per well in hepatocyte plating media (HPM, final concentrations: 1× Dulbecco's Modified Eagle's Medium, 0.1 μM dexamethasone, 10% fetal bovine serum, 1×ITS, 1×PSG) followed by incubation at 37° C. under 5% CO2 and 90% relative humidity for 2 days to allow hepatocytes to form a confluent layer. On Day 3, hepatocytes were treated with either test compound or rifampin (20 μM, positive control for CYP3A induction) prepared in hepatocyte incubation media ((HIM, final concentrations: 1× William's Medium E, 0.1 μM dexamethasone, 1×ITS, 1×PSG). Treatment was performed for 72 hours with either 2 concentrations (2 μM or 10 μM) or a range of concentrations (0.001 μM to 100 μM) of the test compound to obtain full dose-response curve. Fresh media containing the relevant concentrations of the test compound was replaced every day until the samples were processed. After 72 hours of incubation, samples were processed for mRNA analysis using bDNA technology using manufacturer's instructions (Affymetrix, Fremont, Calif.). Cell viability was tested at the end of the experiment using MTT assay kit (Roche Diagnostics, Basel, Switzerland). Data was analyzed and presented as percent of control (POC) and Emax and EC50 obtained when appropriate according to guidance from Center for Drug Evaluation and Research (CDER), 2006, Guidance for Industry, Drug Interaction Studies—Study Design, Data Analysis, and Implications for Dosing and Labeling.
Cryopreserved human hepatocytes were seeded in 96-well collagen coated plates at 70,000 cells per well in hepatocyte plating media (HPM, final concentrations: 1× Dulbecco's Modified Eagle's Medium, 0.1 μM dexamethasone, 10% fetal bovine serum, 1×ITS, 1×PSG) followed by incubation at 37° C. under 5% CO2 and 90% relative humidity for 2 days to allow hepatocytes to form a confluent layer. On Day 3, hepatocytes were treated with either test compound or rifampin (20 μM, positive control for CYP3A induction) prepared in hepatocyte incubation media ((HIM, final concentrations: 1× William's Medium E, 0.1 μM dexamethasone, 1×ITS, 1×PSG). Treatment was performed for 72 hours with either 2 concentrations (2 μM or 10 μM) or a range of concentrations (0.001 μM to 100 μM) of the test compound to obtain full dose-response curve. Fresh media containing the relevant concentrations of the test compound was replaced every day until the samples were processed. After 72 hours of incubation, samples were processed for mRNA analysis using bDNA technology using manufacturer's instructions (Affymetrix, Fremont, Calif.). Cell viability was tested at the end of the experiment using MTT assay kit (Roche Diagnostics, Basel, Switzerland). Data was analyzed and presented as percent of control (POC) and Emax and EC50 obtained when appropriate, as described in Halladay, J. et al, 2012, An “all-inclusive” 96-well cytochrome P450 induction method: Measuring enzyme activity, mRNA levels, protein levels, and cytotoxicity from one well using cryopreserved human hepatocytes, Pharmacological and Toxicological Methods, 66:270-275.
The cytochrome P450 (CYP) is a well-known superfamily of enzymes that are responsible for the oxidative and reductive metabolic transformation of medications used in clinical practice. In addition, the CYP enzymes are commonly associated with causing many clinically relevant drug-drug interactions. […]

[2] = molecular target: T1, Human NaV1.7 (Homo sapiens, UniProt Q15858); test: Ionworks Barracuda (IWB) automated patch clamp assay; type: cell-based; conditions: human NaV1.7 in HEK cells, population patch-clamp, state- and use-dependent voltage protocol; read-out: hNaV1.7 IWB-U IC50
T1 construct: expressed in transfected cells; host or cells: Spiking HEK cells (without Kir2.1 transfection)
T1 sequence (Q15858 whole entry): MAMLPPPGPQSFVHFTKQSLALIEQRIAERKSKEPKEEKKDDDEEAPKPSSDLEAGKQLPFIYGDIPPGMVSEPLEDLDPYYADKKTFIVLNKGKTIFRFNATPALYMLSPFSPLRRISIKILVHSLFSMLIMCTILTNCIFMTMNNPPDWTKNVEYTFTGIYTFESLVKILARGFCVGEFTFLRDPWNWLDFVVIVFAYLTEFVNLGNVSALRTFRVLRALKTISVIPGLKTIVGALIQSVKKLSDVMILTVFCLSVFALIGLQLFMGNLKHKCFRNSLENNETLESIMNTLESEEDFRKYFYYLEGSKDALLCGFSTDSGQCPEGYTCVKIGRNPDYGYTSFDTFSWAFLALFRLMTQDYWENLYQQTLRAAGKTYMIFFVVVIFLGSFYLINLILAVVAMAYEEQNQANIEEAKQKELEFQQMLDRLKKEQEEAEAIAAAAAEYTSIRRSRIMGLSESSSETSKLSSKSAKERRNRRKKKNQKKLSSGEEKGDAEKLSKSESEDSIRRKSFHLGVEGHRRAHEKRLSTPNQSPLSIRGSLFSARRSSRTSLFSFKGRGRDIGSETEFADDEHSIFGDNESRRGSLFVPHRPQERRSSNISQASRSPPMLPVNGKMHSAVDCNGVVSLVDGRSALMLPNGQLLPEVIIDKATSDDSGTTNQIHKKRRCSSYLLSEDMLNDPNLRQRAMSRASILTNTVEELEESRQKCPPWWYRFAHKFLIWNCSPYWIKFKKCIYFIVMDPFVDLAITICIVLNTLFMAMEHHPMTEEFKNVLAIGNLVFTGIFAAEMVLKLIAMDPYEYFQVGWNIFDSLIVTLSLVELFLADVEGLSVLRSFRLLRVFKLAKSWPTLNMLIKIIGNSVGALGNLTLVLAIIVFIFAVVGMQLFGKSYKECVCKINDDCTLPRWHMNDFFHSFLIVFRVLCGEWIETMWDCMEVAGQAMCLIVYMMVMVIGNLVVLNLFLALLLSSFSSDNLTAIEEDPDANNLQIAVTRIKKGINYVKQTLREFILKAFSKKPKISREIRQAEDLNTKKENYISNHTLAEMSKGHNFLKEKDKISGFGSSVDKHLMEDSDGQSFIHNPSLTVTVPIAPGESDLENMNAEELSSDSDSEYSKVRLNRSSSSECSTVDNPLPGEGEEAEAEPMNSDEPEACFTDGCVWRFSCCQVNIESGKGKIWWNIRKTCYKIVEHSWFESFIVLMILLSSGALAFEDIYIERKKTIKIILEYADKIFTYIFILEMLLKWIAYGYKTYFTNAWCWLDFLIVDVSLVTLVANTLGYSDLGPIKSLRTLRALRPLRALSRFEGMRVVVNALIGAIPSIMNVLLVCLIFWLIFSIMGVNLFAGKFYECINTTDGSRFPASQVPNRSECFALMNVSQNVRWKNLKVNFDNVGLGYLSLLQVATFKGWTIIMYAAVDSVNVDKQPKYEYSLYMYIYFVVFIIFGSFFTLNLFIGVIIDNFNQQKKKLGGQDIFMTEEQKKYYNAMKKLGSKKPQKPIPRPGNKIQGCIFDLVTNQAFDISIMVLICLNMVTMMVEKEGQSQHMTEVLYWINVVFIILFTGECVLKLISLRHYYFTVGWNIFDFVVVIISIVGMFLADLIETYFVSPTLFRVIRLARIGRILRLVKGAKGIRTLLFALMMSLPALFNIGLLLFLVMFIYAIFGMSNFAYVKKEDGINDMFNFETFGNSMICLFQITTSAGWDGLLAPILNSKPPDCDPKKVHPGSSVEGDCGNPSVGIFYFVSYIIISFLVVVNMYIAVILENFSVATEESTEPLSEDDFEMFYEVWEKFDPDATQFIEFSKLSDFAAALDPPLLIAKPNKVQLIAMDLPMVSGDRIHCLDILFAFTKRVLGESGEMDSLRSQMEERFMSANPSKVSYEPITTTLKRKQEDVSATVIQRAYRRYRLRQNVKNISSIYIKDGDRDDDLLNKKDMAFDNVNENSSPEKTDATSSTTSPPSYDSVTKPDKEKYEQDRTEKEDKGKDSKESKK
Description: Ionworks Barracuda (IWB) Automated Patch Clamp Assay (Same Protocol for Both Human and Mouse)
Human NaV1.7 currents were recorded in population patch-clamp mode with the IWB automated electrophysiology system (Molecular Devices, LLC, Sunnyvale, Calif.). Spiking HEK cells (without Kir2.1 transfection) were cultured and prepared for recordings as previously described for IonWorks Quattro testing^1. The external solution consisted of the following (in mM): NaCl 140, KCl 5, CaCl2 2, MgCl2 1, HEPES 10, and glucose 11, pH 7.4, with N-methyl-D-glucamine at 320 mOsmol. […] From a holding potential of −110 mV, currents were elicited by a train of 26 depolarizations of 150 ms duration to −20 mV at a frequency of 5 Hz. Cells were then clamped to −20 mV for a period of 4 minutes in the presence of a single concentration of test compound. Following this compound incubation period, cells were clamped to −110 mV for three seconds to recover unbound channels and put through the same 26 pulse voltage protocol as above. Peak inward current during the 26th pulse to −20 mV in the presence of compound was divided by the peak inward current evoked by the 26th pulse to −20 mV in the absence of compound to determine percent inhibition. Concentration-response curves of percent inhibition as a function of concentration were generated to calculate IC50 values as described in Kornecook, T. J.; Yin, R.; Altmann, S.; et al. Pharmacologic Characterization of AMG8379, a Potent and Selective Small Molecule Sulfonamide Antagonist of the Voltage-Gated Sodium Channel NaV1. 7.
The potency of the compounds of the present invention were evaluated on human NaV1.7 channels using the above described IonWorks Barracuda automated electrophysiology platform that evaluates the ability of compounds to block sodium conductance through NaV1.7 channels. A voltage-protocol that prosecutes both state-dependent as well as use-dependent inhibition was used as these modes of action are thought to be more relevant for the native state of NaV1.7 channels in pain sensing neurons in vivo.

Molecule	CYP3A4 mRNA Induct Hu 10 uM POC [1]	IC50 [2]
COc1cc([C@@H]2C[C@H]2C(F)(F)F)c(F)cc1-n1c(=O)ccc2cc(S(=O)(=O)Nc3nncs3)ccc21 (atropisomer, axis not shown; (P)) [Example 40, (P)-1-(5-fluoro-2-methoxy-4-((1R,2R)-2-(trifluoromethyl)cyclopropyl)phenyl)-2-oxo-N-(1,3,4-thiadiazol-2-yl)-1,2-dihydroquinoline-6-sulfonamide]	10.79%	
COc1cc([C@@H]2C[C@H]2C(F)(F)F)c(F)cc1-n1c(=O)ccc2cc(S(=O)(=O)Nc3ccon3)c(F)cc21 (atropisomer, axis not shown; (P)) [Example 45, (P)-7-fluoro-1-(5-fluoro-2-methoxy-4-((1R,2R)-2-(trifluoromethyl)cyclopropyl)phenyl)-N-(isoxazol-3-yl)-2-oxo-1,2-dihydroquinoline-6-sulfonamide]	24.57%	
(P)-1-(5-fluoro-2-methoxy-4-((1S,2S)-2-((trifluoromethoxy)methyl)cyclopropyl)phenyl)-N-(isoxazol-3-yl)-2-oxo-1,2-dihydroquinoline-6-sulfonamide [Example 33]	139.9%	4 nM

Second part, the molecule after the results:

CYP3A4 mRNA Induct Hu 10 uM POC [1]	IC50 [2]	Molecule
29.06%	10 nM	COc1cc([C@@H]2C[C@H]2C(F)(F)F)ccc1-n1c(=O)ccc2cc(S(=O)(=O)Nc3ccon3)ccc21 (single isomer, unassigned) [Example 38]
38.35%	8 nM	COc1cc([C@H]2C[C@@H]2C(F)(F)F)ccc1-n1c(=O)ccc2cc(S(=O)(=O)Nc3ccon3)ccc21 (single isomer, unassigned) [Example 39]
